Test results from publication PMC9224243, “Palmitic Amide Triggers Virus Life Cycle via Enhancing Host Energy Metabolism” (Frontiers in Microbiology, 2022).

Test system: T1, acetate kinase
T1 construct: gene ackA; purified recombinant acetate kinase
Assay: ITC at […]°C ([…] protein, […] compound); also bead pull-down with MS and Western blot, and increased activity of the purified enzyme at […]
Assay type: binding, Geobacillus sp. E263

Question: With CCCCCCCCCCCCCCCC(N)=O [palmitic amide] as the compound, how does the Kd read?
Answer: 13.2 ± 28.1 µM
